# Like-named read-outs stand apart in the source and are kept apart here. No end group written: not given here.
# Assays:
# DPP-4 [1] = target: T1, DPP-4 (Homo sapiens, UniProt P27487); test: DPP-IV-inhibitory activity, Gly-Pro-pNA substrate; format: biochemical; conditions: 37 °C, 15 min; for IC50: Tris–HCl 20 mM pH 8.0, substrate Gly-Pro-pNA 1 mM (50 µL), 0.05 mg/mL DPP-4 (10 µL), peptide in ddH2O, dark, absorbance 405 nm, triplicate, four-parameter logistic fit
# T1 construct: purchased Adamas (Shanghai Adamas Reagent Co., Ltd., Shanghai, China)
# T1 sequence (P27487 whole entry): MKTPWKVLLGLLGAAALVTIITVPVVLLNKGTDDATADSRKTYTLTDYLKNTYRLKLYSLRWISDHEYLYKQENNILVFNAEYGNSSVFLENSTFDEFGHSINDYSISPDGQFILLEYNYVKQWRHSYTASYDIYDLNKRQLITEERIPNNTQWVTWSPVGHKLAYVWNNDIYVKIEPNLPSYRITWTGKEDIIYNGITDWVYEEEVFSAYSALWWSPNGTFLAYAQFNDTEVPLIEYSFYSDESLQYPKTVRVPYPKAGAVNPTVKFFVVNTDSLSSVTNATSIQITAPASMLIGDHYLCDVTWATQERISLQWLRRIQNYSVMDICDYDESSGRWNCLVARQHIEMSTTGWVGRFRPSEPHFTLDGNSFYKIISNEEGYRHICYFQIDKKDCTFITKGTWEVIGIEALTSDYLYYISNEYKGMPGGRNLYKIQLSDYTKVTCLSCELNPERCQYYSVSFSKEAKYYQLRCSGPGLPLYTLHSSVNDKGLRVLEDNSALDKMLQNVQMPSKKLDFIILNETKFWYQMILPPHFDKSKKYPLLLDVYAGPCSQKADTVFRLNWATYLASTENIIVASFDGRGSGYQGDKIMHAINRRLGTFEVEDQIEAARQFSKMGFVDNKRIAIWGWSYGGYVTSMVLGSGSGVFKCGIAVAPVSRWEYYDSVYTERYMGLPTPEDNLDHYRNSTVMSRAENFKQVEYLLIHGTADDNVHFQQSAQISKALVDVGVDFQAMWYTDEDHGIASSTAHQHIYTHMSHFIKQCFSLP
# Description: The assay method for measuring the peptide inhibition of DPP-4 was based on the combination of two established protocols: the peptides were dissolved in ddH2O to prepare a gradient of concentrations and the DPP-4 enzyme was diluted in Tris–HCl (20 mM, pH 8.0). In a 96-well plate, 30 µL ddH2O, 10 µL peptide solution, 50 µL substrate (1 mM), and 10 µL DPP-4 enzyme (0.05 mg/mL) were added sequentially. Each peptide concentration was tested in triplicate and incubated at 37 °C in the dark for 15 min, and then 100 µL of 0.1 M NaHCO3 solution was added to stop the reaction. The absorbance at 405 nm was measured on a microplate reader, and the percent inhibition of DPP-4 was calculated at each concentration. The IC50 values for the four peptides were determined by fitting the dose–response curves with the log peptide concentration on the x-axis and the DI (%) on the y-axis. The DPP-IV-inhibition (DI) was calculated as follows:(8) DI%=(1−A405peptide−A405buffer/A405positive control−A405negtive control)×[…] where A405 (peptide) represents the optical density (at 405 nm) of the enzyme (DPP-IV) in the presence of the substrate (Gly-Pro-p-nitroanilide) and inhibitor (inhibitory peptide); A405 (buffer) represents the optical density of ddH2O; A405 (positive reaction) represents the optical density of the enzyme and the substrate in the absence of inhibitor; and A405 (negative reaction) represents the optical density of the enzyme in the absence of the substrate and inhibitor.
# Origin 2024 was used to sort out the physical and chemical property data and create heatmaps to visualize the correlation between the peptide activity, the docking energy, and the physicochemical properties. GraphPad Prism 10 was used to perform non-linear regression of the DPP-4 percent inhibition versus the log[concentration]. The differences between the IC50 values of DPP-IV were subjected to the ordinary one-way ANOVA test. A p-value < 0.05 was considered significant. Other images were created by Python 3.13.2 and Adobe Illustrator 2022. We evaluated Section 2 of the article using the TRIPOD (Transparent Reporting of a multivariable prediction model for Individual Prognosis Or Diagnosis) framework from the EQUATOR Network.
# DPP-4 [2] = target: T1, DPP-4; parameters: method as in PMID 29963014, PMID 6427168; conditions: known DPP-4 inhibitory peptide, positive control; ref [41],[42]; cited from earlier work
IC50 (DPP-4 [1]; read-out: IC50),Substance,other results
153 ± 5.7 µM,PPPPPY [PPPPPY],
,"CPPPPAAY [rice-derived proline-rich peptide, synthesized, purity of 95%]","IC50 (DPP-4 [1]): could not be determined; DPP-4 inhibition (DI%), result in words (DPP-4 [1]; within the tested concentration range, pH 8.0, n = 3): showed no inhibitory effect"
216 ± 4.5 µM,PPPSPPPV [PPPSPPPV],
177 ± 6 µM,PPPPPPPPA [PPPPPPPPA],
,Diprotin A [IPI],IC50 (DPP-4 [2]): ~3.5 µM

# Reference: paper PMC12154031, “Screening and Validation: AI-Aided Discovery of Dipeptidyl Peptidase-4 Inhibitory Peptides from Hydrolyzed Rice Proteins” (Foods, 2025)
